ChEMBL document CHEMBL5465560, “Selectivity Literature for EUbOPEN Chemogenomic Library” (2024)
Blank lines part the entries; values can stand above or below the compound they belong to.

Key:
[1] = target: T1, Serine/threonine-protein kinase Nek9 (Homo sapiens) (UniProt Q8TD19); assay: Selectivity interaction (ActivX KiNativ screen (kinase selectivity in THP-1 cell lysates)) EUB0000639a NEK9; type: subcellular; settings: lysate
T1 sequence (whole entry): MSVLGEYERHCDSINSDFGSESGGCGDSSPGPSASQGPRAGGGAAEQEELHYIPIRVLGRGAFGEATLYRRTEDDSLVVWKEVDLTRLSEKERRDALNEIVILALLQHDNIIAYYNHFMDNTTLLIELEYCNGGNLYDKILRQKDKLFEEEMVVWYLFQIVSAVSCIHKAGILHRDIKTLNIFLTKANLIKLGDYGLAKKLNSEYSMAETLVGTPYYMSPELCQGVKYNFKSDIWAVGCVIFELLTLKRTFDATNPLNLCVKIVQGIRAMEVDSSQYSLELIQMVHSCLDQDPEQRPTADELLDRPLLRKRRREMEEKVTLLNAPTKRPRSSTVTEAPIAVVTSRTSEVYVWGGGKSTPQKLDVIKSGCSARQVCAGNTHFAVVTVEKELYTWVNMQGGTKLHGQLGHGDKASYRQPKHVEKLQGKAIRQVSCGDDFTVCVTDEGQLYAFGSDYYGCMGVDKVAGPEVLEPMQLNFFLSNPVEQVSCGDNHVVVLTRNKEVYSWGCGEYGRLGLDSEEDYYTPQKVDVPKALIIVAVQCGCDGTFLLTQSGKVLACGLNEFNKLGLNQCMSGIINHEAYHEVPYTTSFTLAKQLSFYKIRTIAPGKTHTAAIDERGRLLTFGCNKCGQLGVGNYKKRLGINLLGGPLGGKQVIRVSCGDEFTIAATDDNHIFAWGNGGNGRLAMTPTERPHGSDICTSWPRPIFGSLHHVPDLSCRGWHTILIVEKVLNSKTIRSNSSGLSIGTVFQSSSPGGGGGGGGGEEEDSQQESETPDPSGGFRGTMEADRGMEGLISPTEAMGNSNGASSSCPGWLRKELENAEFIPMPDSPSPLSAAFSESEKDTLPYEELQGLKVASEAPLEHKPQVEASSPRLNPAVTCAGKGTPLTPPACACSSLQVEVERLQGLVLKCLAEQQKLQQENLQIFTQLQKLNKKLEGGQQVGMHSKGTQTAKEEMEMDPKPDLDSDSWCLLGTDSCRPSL

[2] = target: Cyclin-dependent kinase 5/CDK5 activator 1 (Homo sapiens) (UniProt Q00535+Q15078); assay: Selectivity interaction (ProQinase) EUB0000171b CDK5; type: protein-complex assay; settings: at 5 µM
[3] = target: Dual specificity protein kinase CLK3 (Homo sapiens, UniProt P49761); assay: Selectivity interaction (Kinase panel (DSF assay)) EUB0001559a CLK3
[4] = target: Tyrosine-protein kinase ITK/TSK (Homo sapiens, UniProt Q08881); assay: Selectivity interaction (Enyzmatic assay) EUB0000601a ITK
[5] = target: T2, Serine/threonine-protein kinase LATS2 (Homo sapiens) (UniProt Q9NRM7); settings: at 10 µM
T2 sequence (whole entry): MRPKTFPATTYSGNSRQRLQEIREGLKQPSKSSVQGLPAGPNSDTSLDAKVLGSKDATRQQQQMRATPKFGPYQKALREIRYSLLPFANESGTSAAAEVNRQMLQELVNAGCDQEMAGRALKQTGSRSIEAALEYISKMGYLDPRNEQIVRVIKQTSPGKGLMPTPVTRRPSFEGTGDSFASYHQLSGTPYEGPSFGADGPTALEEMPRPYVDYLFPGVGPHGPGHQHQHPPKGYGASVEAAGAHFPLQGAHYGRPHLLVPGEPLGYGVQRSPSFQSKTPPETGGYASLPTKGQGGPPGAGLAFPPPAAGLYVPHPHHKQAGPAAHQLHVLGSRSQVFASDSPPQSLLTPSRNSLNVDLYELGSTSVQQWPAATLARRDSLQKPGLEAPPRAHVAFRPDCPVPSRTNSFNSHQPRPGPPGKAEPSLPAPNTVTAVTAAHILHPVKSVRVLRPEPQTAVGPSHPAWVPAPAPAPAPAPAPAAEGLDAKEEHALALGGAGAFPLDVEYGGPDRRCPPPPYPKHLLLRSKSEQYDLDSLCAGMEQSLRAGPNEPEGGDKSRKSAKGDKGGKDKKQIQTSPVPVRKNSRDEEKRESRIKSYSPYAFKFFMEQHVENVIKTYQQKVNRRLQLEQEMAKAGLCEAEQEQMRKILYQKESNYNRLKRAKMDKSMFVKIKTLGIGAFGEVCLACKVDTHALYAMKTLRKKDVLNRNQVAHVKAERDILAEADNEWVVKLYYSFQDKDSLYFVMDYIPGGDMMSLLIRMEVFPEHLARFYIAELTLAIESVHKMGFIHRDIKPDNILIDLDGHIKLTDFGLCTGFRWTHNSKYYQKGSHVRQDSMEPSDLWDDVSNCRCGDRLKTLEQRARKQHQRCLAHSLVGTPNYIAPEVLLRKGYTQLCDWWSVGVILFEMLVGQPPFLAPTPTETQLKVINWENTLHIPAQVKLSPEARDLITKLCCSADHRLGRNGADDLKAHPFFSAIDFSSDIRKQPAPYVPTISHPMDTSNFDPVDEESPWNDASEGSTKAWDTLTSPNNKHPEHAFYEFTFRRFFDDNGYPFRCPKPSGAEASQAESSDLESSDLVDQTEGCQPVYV

[6] = target: Serine/threonine-protein kinase PRP4 homolog (Homo sapiens) (UniProt Q13523); assay: Selectivity interaction (KinomeScan (DiscoverX)) EUB0001049a PRPF4B; settings: at 1 µM
Serine/threonine-protein kinase PRP4 homolog (Homo sapiens), sequence (Q13523 whole entry): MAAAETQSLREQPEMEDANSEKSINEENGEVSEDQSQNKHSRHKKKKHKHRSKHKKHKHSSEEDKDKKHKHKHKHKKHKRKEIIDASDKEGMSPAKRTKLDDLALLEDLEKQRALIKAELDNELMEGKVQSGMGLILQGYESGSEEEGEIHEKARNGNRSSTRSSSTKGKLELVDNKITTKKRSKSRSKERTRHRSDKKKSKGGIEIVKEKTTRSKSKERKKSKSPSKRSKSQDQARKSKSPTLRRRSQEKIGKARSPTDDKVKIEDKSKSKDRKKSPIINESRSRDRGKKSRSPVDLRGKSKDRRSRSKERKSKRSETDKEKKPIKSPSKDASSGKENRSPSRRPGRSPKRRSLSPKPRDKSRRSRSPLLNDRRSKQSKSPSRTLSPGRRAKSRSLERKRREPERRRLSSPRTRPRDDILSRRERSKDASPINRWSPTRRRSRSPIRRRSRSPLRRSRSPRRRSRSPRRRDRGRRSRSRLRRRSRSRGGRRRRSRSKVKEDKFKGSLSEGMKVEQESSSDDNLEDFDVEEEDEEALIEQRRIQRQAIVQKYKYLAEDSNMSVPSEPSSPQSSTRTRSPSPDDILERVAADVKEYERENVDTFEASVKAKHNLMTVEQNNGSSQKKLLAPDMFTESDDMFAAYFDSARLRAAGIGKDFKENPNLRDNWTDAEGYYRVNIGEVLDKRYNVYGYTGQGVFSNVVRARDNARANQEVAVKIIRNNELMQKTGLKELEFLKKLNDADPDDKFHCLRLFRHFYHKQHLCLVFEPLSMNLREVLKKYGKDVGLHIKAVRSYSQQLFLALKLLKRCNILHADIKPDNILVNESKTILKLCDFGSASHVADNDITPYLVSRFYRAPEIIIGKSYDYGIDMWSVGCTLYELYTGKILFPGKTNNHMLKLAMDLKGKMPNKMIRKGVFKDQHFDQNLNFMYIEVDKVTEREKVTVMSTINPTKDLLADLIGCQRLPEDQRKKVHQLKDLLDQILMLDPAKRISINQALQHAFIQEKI

Cyclin-dependent kinase 5/CDK5 activator 1 (Homo sapiens), sequence (Q00535 whole entry): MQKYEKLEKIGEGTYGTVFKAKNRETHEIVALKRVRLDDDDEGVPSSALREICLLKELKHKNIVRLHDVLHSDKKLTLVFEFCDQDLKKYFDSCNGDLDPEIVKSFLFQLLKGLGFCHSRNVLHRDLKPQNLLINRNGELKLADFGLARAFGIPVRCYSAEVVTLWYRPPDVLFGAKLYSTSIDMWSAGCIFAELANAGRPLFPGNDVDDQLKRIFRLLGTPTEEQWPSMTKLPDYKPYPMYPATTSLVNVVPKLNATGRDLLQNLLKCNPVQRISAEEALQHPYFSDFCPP
Cyclin-dependent kinase 5/CDK5 activator 1 (Homo sapiens), sequence (Q15078 99-307 partner limits assumed): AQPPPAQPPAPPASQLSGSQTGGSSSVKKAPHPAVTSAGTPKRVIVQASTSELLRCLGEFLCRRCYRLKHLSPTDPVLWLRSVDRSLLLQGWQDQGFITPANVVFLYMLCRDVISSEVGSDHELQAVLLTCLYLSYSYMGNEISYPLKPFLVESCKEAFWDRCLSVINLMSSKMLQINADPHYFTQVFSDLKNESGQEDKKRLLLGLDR
Tyrosine-protein kinase ITK/TSK, sequence (Q08881 whole entry): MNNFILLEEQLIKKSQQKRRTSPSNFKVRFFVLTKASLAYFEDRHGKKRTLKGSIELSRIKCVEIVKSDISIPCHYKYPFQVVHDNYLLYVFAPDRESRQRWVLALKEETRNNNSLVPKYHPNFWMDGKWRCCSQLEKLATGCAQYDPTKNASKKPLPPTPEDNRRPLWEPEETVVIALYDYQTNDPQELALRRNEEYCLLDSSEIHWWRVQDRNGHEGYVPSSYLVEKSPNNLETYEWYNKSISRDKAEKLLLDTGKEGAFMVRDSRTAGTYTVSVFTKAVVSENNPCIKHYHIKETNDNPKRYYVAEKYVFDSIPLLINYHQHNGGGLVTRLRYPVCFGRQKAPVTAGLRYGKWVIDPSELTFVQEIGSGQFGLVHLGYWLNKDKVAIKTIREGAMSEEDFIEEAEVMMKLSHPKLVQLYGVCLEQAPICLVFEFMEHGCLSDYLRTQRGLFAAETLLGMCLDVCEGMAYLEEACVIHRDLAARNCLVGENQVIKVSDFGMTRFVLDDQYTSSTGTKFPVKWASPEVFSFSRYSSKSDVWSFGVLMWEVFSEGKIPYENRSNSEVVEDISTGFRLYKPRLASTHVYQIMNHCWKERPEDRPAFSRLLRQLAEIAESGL
Dual specificity protein kinase CLK3, sequence (P49761 whole entry, looked up): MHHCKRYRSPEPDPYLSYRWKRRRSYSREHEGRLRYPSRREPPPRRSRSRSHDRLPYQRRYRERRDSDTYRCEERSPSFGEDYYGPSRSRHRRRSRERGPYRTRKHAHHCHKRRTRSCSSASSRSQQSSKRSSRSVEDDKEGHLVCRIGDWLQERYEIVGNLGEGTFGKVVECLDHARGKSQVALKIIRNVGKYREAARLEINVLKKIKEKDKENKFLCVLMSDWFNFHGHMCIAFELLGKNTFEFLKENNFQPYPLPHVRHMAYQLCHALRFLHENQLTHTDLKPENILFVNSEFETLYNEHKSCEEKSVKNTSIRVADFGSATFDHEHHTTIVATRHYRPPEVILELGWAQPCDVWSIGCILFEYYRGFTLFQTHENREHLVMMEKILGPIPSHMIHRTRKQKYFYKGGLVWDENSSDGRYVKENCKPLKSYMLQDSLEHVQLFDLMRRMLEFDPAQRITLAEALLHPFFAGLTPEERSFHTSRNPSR

Compound: CC[C@@H]1[C@H](F)C(=O)N[C@@H]1COc1nccc2cc(C(N)=O)c(OC)cc12 [ZIMLOVISERTIB]
% of inhibition ([1]; at 0.01 µM): 0.3% | % of inhibition ([1]; at 0.04 µM): -3.6% | % of inhibition ([1]; at 0.2 µM): -11.2% | % of inhibition ([1]; at 1 µM): 7.7% | % of inhibition ([1]; at 5 µM): 0.4%

% of control [2]: 36%
Compound: C=CC(=O)Nc1cccc(C(=O)Nc2ccc(Nc3cc(-c4[nH]c(SC)nc4C)ccn3)cc2)c1

dTM [3]: 0 K
Compound: CN(C(=O)c1cnn2cccnc12)c1cc2c(cc1N1CCOCC1)C(=O)N(C[C@@H](F)C(C)(C)O)C2

IC50 [4]: > 25 µM
Compound: CCc1cc(Nc2nccc(-c3c(-c4ccc(OC)c(C(=O)Nc5c(F)cccc5F)c4)nc4ccccn34)n2)c(OC)cc1N1CCC(N2CCN(S(C)(=O)=O)CC2)CC1

Compound: COCC(=O)NC/C=C/c1ccc2ncnc(Nc3ccc(Oc4ccc(C)nc4)c(C)c3)c2c1 [CP-724714]
% of control [5]: 100%

Compound: COc1cc(Nc2nc(C)cc(-c3cnn4nc(OC)ccc34)n2)cc(C(F)(F)F)c1
% of control [6]: 100%
